Measured values taken from patent US6649367B2, “Human cancer cell line malignantly altered by expression of angiogenic factor” (Eisai Co., Ltd, priority 2001, dated 2003).

Test system: KP-1/VEGF cells
Assay: Effect on in vivo angiogenesis induced by KP-1/VEGF (chamber transplanted in mouse dorsal air sac, 51Cr-labelled blood cells)
Details: for In vivo angiogenesis-inducing activity (volume of blood vessel): C57BL/6N mouse, KP-1/VEGF chamber, four days after transplantation; for In vivo angiogenesis inhibitory effect: =(X−B)/(A−B)×100, A control, B collagen, X administered group
Description: 3×10^6 cells/0.17 ml suspension of KP-1/VEGF cells was prepared using a collagen solution. In a chamber formed by adhering 0.45-μm Durapore filter membrane (Millipore) to a chamber ring (Millipore), 0.17 ml of the suspension was injected through the injection inlet and sealed. An air sac of about 10 ml was formed on dorsal subcutaneous portion of a 6-week-old female C57BL/6N mouse under anesthesia and the chamber enclosing the cells therein was transplanted in the air sac.
From the day of transplantation, ZD6474 as a VEGFR kinase inhibitor and ZD1839(Iressa) as an EGFR kinase inhibitor were each orally administered in dosage of 25, 50 or 100 mg/kg once a day for 4 days.
Four days after the transplantation, 2,500,000 cpm/ml of blood cell suspension prepared by labeling the cells with sodium chromate (^51Cr) (Amersham Pharmacia) was injected in an amount of 0.2 ml each through the tail vein of the chamber-transplanted mouse, and then the skin portion contacting the chamber was cut out and the radioactivity thereof was measured by use of a γ-counter. From the measured radioactivity, the amount of blood (volume of blood vessel) was calculated and was used as an index of in vivo angiogenesis-inducing activity.
Further, providing that the in vivo angiogenesis-inducing activity of control is A, the in vivo angiogenesis-inducing activity of collagen is B, and the in vivo angiogenesis-inducing activity of each administered group is X, in vivo angiogenesis inhibitory effect was obtained by the following equation. In vivo angiogenesis inhibitory effect (%)

[1] = 25 mg/kg orally once a day for 4 days
[2] = 50 mg/kg orally once a day for 4 days
[3] = 100 mg/kg orally once a day for 4 days

COc1cc2ncnc(Nc3ccc(F)c(Cl)c3)c2cc1OCCCN1CCOCC1 [ZD1839]
In vivo angiogenesis-inducing activity (volume of blood vessel) [1]: 2.75 ± 0.66 µL | In vivo angiogenesis-inducing activity (volume of blood vessel) [2]: 2.77 ± 0.47 µL | In vivo angiogenesis-inducing activity (volume of blood vessel) [3]: 2.76 ± 0.73 µL

COc1cc2c(Nc3ccc(Br)cc3F)ncnc2cc1OCC1CCN(C)CC1 [ZD6474]
In vivo angiogenesis inhibitory effect [1]: 68.0% | In vivo angiogenesis-inducing activity (volume of blood vessel) [1]: 2.56 ± 0.26 µL | In vivo angiogenesis inhibitory effect [2]: 40.8% | In vivo angiogenesis-inducing activity (volume of blood vessel) [2]: 2.18 ± 0.38 µL | In vivo angiogenesis inhibitory effect [3]: −10.9% | In vivo angiogenesis-inducing activity (volume of blood vessel) [3]: 1.47 ± 0.40 µL
